Test results published in patent publication US4968672A, “Adenosine receptor prodrugs” (priority 1987, dated 1990).
Counter-ions that a name gives are not always drawn. Like-named read-outs stand apart in the source and are kept apart here.

What was measured:
A1 adenosine receptors = biological target: T1, A1 adenosine receptors (Rattus norvegicus, UniProt P25099); assay: membrane binding assay at A1 adenosine receptors (Tables 1 and 2)
T1 construct: rat cerebral cortex membranes; from tissue; host or cells: rat cerebral cortex membranes
T1 sequence (P25099 1-326): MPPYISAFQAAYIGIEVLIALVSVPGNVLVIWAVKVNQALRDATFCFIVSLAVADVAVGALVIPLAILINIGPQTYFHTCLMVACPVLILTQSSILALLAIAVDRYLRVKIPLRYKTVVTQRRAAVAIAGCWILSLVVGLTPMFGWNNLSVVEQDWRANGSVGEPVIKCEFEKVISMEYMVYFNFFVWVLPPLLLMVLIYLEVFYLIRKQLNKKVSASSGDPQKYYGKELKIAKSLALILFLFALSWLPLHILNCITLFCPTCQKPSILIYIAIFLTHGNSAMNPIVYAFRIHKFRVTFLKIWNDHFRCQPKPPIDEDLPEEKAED
From the text: Table 2 lists prodrugs (including Routes A and B of FIG. 2) and chemical intermediates, based on xanthine and adenosine functionalized congener and the method of synthesis. The potency of each compound at A1 adenosine receptors is indicated by the Ki (inverse relationship to potency) in a membrane binding assay.

A1 receptor = biological target: T2, A1 receptor (Rattus norvegicus, UniProt P25099); assay: inhibition of [3H]PIA binding to rat cerebral cortex membranes; conditions: [3H]PIA, rat cerebral cortex membranes; means from two experiments; read-out: A1 receptor Ki
T2 construct: rat cerebral cortex membranes; from tissue; host or cells: rat cerebral cortex membranes
T2 sequence (P25099 1-326): T1 sequence (P25099 1-326)
Experimental: Measurements of the potencies of the xanthines as antagonists of NECA-induced stimulation of adenylate cyclase activity in human platetlet membranes and as inhibitors of [^3 H]PIA binding to rat cerebral cortex membranes were carried out as reported previously.

[1] = Table 1, prodrug before cleavage, read-out: Ki(nM) at A1 Before Cleavage
[2] = Table 1, liberated product, read-out: Ki(nM) at A1 After Cleavage

`CCCn1c(=O)c2[nH]c(-c3ccc(OCC(=O)NCCNC(=O)CC[C@H](N)C(=O)O)cc3)nc2n(CCC)c1=O` [HGlu(XAC)OH] showed a Ki (A1 adenosine receptors; Table 2, read-out: Ki (A1(nM))) of 17 nM.

Work on `CCCn1c(=O)c2c(nc(-c3ccc(OCC(=O)NCCN)cc3)n2Cc2ccccc2)n(CCC)c1=O` [(N7-benzyl)XAC] yielded a Ki (A1 adenosine receptors; Table 2, read-out: Ki (A1(nM))) of 250 nM.

`CCCCCC=CCC=CCCCCCCCC(=O)NC(Cc1ccc(OC(=O)CCCCCCCC=CCC=CCCCCC)cc1)C(=O)NCC(=O)NCCNC(=O)COc1ccc(-c2nc3c([nH]2)c(=O)n(CCC)c(=O)n3CCC)cc1` (centres unmarked) [Linoleyl-Tyr(O-linoleyl)-GlyXAC] was tested, and the Ki (A1 adenosine receptors; [1]) was 20 nM and the Ki (A1 adenosine receptors; Table 2, read-out: Ki (A1(nM))) was 20 nM.

With `CCCCC/C=C\C/C=C\CCCCCCCC(=O)NCCNC(=O)COc1ccc(-c2nc3c([nH]2)c(=O)n(CCC)c(=O)n3CCC)cc1` [N-linoleyl-XAC] the Ki (A1 adenosine receptors; Table 2, read-out: Ki (A1(nM))) was 35 nM.

In the case of `CCCn1c(=O)c2[nH]c(-c3ccc(OCC(=O)NCCO)cc3)nc2n(CCC)c1=O` [Compound 39], the Ki (A1 adenosine receptors; [2]) is reported as 12 nM and the Ki (A1 adenosine receptors; Table 2, read-out: Ki (A1(nM))) is reported as 13 nM.

`CCCn1c(=O)c2[nH]c(-c3ccc(OCC(=O)NCCNC(=O)[C@@H](Cc4ccc([N+](=O)[O-])cc4)NC(=O)OC(C)(C)C)cc3)nc2n(CCC)c1=O` [BocD(p-NO2)PheXAC] gave a Ki (A1 adenosine receptors; Table 2, read-out: Ki (A1(nM))) of 89 nM.

`CCCn1c(=O)c2[nH]c(-c3ccc(OCC(=O)NCCNC(=O)[C@H](N)Cc4ccc([N+](=O)[O-])cc4)cc3)nc2n(CCC)c1=O` [TFA.HD(p-NO2)PheXAC] gave a Ki (A1 adenosine receptors; Table 2, read-out: Ki (A1(nM))) of 4.3 nM.

For `CCCn1c(=O)c2[nH]c(-c3ccc(OCC(=O)NCCNC(=O)CNC(=O)CNC(=O)CNC(=O)OCc4ccccc4)cc3)nc2n(CCC)c1=O` [CbzGlyGlyGlyXAC], the Ki (A1 adenosine receptors; Table 2, read-out: Ki (A1(nM))) was 10 nM.

`CCCn1c(=O)c2[nH]c(-c3ccc(OCC(=O)NCCNC(=O)c4ccc[n+](C)c4)cc3)nc2n(CCC)c1=O` [Compound 43] gave a Ki (A1 adenosine receptors; [2]) of 10 nM, a Ki (A1 adenosine receptors; [1]) of 10 nM and a Ki (A1 adenosine receptors; Table 2, read-out: Ki (A1(nM))) of 40 nM.

`CCCn1c(=O)c2[nH]c(-c3ccc(OCC(=O)NCCNC(=O)CNC(=O)[C@@H](N)Cc4ccc(O)cc4)cc3)nc2n(CCC)c1=O` [Compound 22] was tested, and the Ki (A1 adenosine receptors) was 5.3 nM.

`CCCn1c(=O)c2[nH]c(-c3ccc(OCC(=O)NCCNC(=O)[C@@H](Cc4ccc(N)cc4)NC(=O)OC(C)(C)C)cc3)nc2n(CCC)c1=O` [Compound 10] was tested, and the Ki (A1 adenosine receptors; Table 2, read-out: Ki (A1(nM))) was 32 nM.

`CCCn1c(=O)c2[nH]c(-c3ccc(OCC(=O)NCCNC(=O)CC[C@H](N)C(=O)OCc4ccccc4)cc3)nc2n(CCC)c1=O` [TFA.HGlu(XAC)OBzl, Glutamic acid (gamma-XAC) alpha benzyl ester trifluoroacetate] was tested, and the Ki (A1 adenosine receptors) was 1.8 nM.

With `CCCn1c(=O)c2c(nc(-c3ccc(OCC(=O)NCCNC(=O)OCc4ccccc4)cc3)n2Cc2ccccc2)n(CCC)c1=O` [NCbz(N7-benzyl)XAC] the Ki (A1 adenosine receptors; Table 2, read-out: Ki (A1(nM))) was 95 nM.

`CCCCCCCC/C=C/CCCCCCCC(=O)NCCNC(=O)Cc1ccc(NC(=O)Cc2ccc(Nc3ncnc4c3ncn4[C@@H]3O[C@H](CO)[C@@H](O)[C@H]3O)cc2)cc1` [Compound 37] was tested, and the “potency in the blocked form” value (A1 adenosine receptors) was “highly potent in the blocked form” and the Ki (A1 adenosine receptors; Table 2, read-out: Ki (A1(nM))) was < 0.3 nM.

Work on `CCCn1c(=O)c2[nH]c(-c3ccc(OCC(=O)NCCNC(=O)CN(CC(=O)O)C(=O)OCC4c5ccccc5-c5ccccc54)cc3)nc2n(CCC)c1=O` [HO2 CCH2N(FMOC)CH2 COXAC, 8-[N -Carboxymethyl-N -(9-fluorenylmethyloxycarbonyl) -[[[[[[[[[amino]methyl]carbonyl]amino]ethyl]amino]carbonyl]methyl]-oxy]phenyl]-1,3-dipropylxanthine] yielded a Ki (A1 adenosine receptors; Table 2, read-out: Ki (A1(nM))) of 170 nM.

For `CCCCCCCCCCCCCCCCCC(=O)OCCNC(=O)COc1ccc(-c2nc3c([nH]2)c(=O)n(CCC)c(=O)n3CCC)cc1` [O-stearoyl-XHC], the Ki (A1 adenosine receptors; [1]) was 208 nM and the Ki (A1 adenosine receptors; Table 2, read-out: Ki (A1(nM))) was 208 nM.

For `CCCn1c(=O)c2[nH]c(-c3ccc(OCC(=O)NCCNC(=O)CNC(=O)[C@H](Cc4ccc(OC(C)=O)cc4)NC(C)=O)cc3)nc2n(CCC)c1=O` [AcTyr(OAc)GlyXAC], the Ki (A1 adenosine receptors; Table 2, read-out: Ki (A1(nM))) was 3.9 nM.

`CCCn1c(=O)c2[nH]c(-c3ccccc3)nc2n(CCC)c1=O` [Compound 51c, 1,3-dipropyl-8-phenylxanthine] gave a Ki (A1 receptor) of 13 nM.

`CCCCCCCC/C=C\CCCCCCCC(=O)OCC(COP(=O)(O)OCCNC(=O)COc1ccc(-c2nc3c([nH]2)c(=O)n(CCC)c(=O)n3CCC)cc1)OC(=O)CCCCCCC/C=C\CCCCCCCC` (centres unmarked) [Compound 32, XCC-phosphatidylethanolamine] was tested, and the “potency at adenosine A1 receptors relative to compound 33 / to hydrolysis product” value (A1 adenosine receptors) was “of comparable potency” and the Ki (A1 adenosine receptors; Table 2, read-out: Ki (A1(nM))) was 24 ± 1 nM.

`CCCn1c(=O)c2[nH]c(-c3ccc(OCC(=O)NCCNC(=O)CNC(=O)CN)cc3)nc2n(CCC)c1=O` [Compound 20] was tested, and the Ki (A1 adenosine receptors; Table 2, read-out: Ki (A1(nM))) was 3.6 nM.

For `CCCn1c(=O)c2[nH]c(-c3ccc(OCC(=O)NCCNC(=O)[C@@H](NC(=O)[C@H](Cc4ccc(O)cc4)NC(=O)OCc4ccccc4)C(C)C)cc3)nc2n(CCC)c1=O` [CbzTyrValXAC], the Ki (A1 adenosine receptors; Table 2, read-out: Ki (A1(nM))) was 3.7 nM.

For `CCCn1c(=O)c2[nH]c(-c3ccc(OCC(=O)NCCNC(=O)CN)cc3)nc2n(CCC)c1=O` [HGlyXAC], the Ki (A1 adenosine receptors; [2]) was 2.1 nM.
